Experimental data from patent US7432342B2, “Kinase anchor protein muteins, peptides thereof and related documents” (Sequenom, Inc., priority 2002, dated 2008).
“Also recorded” adds a separate entry of the source. Peptide text beside a SMILES is read from it. * marks the point of attachment. X1 = CN(C)c1ccc2c(c1)Oc1cc(N(C)C)ccc1C21OC(=O)c2cc(N3C(=O)CC(*)C3=O)ccc21

What was measured:
full-length RIIα = target: T1, full-length RIIα (Mus musculus, UniProt P12367); test: Fluorescence anisotropy binding assay (Example 9); design: species or system murine; settings: compared with the unsubstituted peptide
T1 construct: Full-length murine RIIα was expressed in E. coli BL21 (DE3); made in house; host or cells: E. coli BL21 (DE3)
T1 sequence (P12367 whole entry): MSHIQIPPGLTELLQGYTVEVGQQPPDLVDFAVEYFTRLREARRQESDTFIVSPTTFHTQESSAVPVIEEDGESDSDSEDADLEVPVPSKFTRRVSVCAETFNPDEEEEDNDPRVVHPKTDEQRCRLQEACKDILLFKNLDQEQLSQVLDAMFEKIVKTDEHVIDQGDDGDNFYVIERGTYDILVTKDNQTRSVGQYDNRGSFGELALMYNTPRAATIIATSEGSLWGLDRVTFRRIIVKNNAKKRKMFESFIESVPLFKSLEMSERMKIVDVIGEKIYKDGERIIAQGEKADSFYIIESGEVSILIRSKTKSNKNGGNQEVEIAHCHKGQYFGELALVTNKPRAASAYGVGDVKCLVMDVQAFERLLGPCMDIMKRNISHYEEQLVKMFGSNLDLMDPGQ
Experimental: (§1) Each peptide was fluorescently labeled using a 25 mM solution of tetramethylrhodamine-5-maleimide (catalog number T-6027; Molecular Probes, Eugene, Oreg.) dissolved in DMSO. The peptides were labeled by incubating with a three-fold molar excess of the label for 16 hr at 4° C. in 20 mM Tris, pH 7.0 and 1 mM tris-(2-carboxyethyl) phosphine, hydrochloride (TCEP) (non-thiol reducing agent, Molecular Probes). The sample was quenched with 1 mM, β-mercaptoethanol to bind to any unreacted maleimide and diluted with 0.1% TFA for purification by HPLC. The labeled peptides were resolved using a C18 column with a water/acetonitrile gradient containing 0.1% TFA. The concentration of each peptide was determined by absorbance at 541 nm after diluting into 100% methanol and using an extinction coefficient of 91,000 M^−1 cm^−1 for absorbance of the rhodamine label at 541 nm (Molecular Probes Catalog). The peptides were stored at 4° C. in 50% acetonitrile.
(§2) Full-length murine RIIα was expressed in E. coli BL21 (DE3). Full-length bovine RIα was expressed in E. coli 222. The proteins were purified as previously described using a cAMP affinity resin (Hamuro et al. (2002) J. Mol. Biol., 321:703). The protein concentrations were determined using the following extinction coefficients at 280 nm, which were calculated using a standard concentration of protein calibrated using quantitative amino acid analysis: RIα 52,603 M^−1 cm^−1 and RIIα 62,456 M^−1 cm^−1. The proteins were stored at 4° C. in 50 mM MES pH 5.8, 50 mM NaCl, 2 mM EDTA, 2 mM EGTA, 2 mM DTT.
(§3) Binding of each fluorescently labeled peptide to the regulatory subunits was monitored using fluorescence anisotropy. RIα and RIIα were serially diluted beginning at 1 μM and 0.1 μM, respectively, into 10 mM HEPES pH 7.4, 0.15 M NaCl, 3 mM EDTA, 0.005% Surfactant P20 (Biacore) containing either 10 nM or 1 nM of fluorescently labeled peptide for RIα and RIIα, respectively. The samples were equilibrated for at least 1 hour at room temperature and fluorescence anisotropy monitored using a Fluoromax-2 (Jobin Yvon Horiba, SPEX Division, Edison, N.J.) equipped with Glan-Thompson polarizers. The rhodamine-labeled peptide was excited at 541 nm (5-10 nm bandpass) and emission monitored at 575 nm (5-10 nm bandpass). The anisotropy was calculated directly with the Fluoromax software using the following equation: r=(IVV−G*IVH)/(IVV+2G*IVH) (1) where r is the steady state anisotropy, IVV is the fluorescence intensity with the excitation and emission polarizers oriented in the vertical position (0° from normal), IVH is the fluorescence intensity with the excitation polarizer in the vertical position and the emission polarizer oriented in the horizontal position (90°) relative to the excitation polarizer, G is the monochromator grating factor which is equal to (IHV/IHH), with the first subscript indicating the position of the excitation polarizer and the second subscript indicating position of the emission polarizer. Three separate binding experiments were averaged and fit to a 1:1 binding model using the non-linear regression application in GraphPad Prism version 3.00 (GraphPad Software, San Diego, Calif.).

GFP-RIIα = target: T2, GFP-RIIα (Mus musculus, UniProt P12367); test: Co-localization with mitochondria-targeted Flag-tagged AKB domain constructs in 10T(1/2) cells (Example 10); assay type: cell-based; settings: mutations of Table 7 in AKB domain of C-terminal 156 residues of mouse D-AKAP2, mitochondria-targeted
T2 construct: Full-length bovine RIα and mouse RIIα were fused with green fluorescent protein (GFP) by subcloning into pEGFPN1; expressed in transfected cells; host or cells: 10T(1/2) cells
T2 sequence (P12367 whole entry, the tested form may be a part): as the sequence (P12367 whole entry) above
Experimental: (§4) To test the ability of the mutations set forth in Table 7 [AKB(dual), AKB(RI), AKB(RII) and AKB(null)] to co-localize with selected PKA isoforms in cells, a flag-tagged AKB domain construct targeted to the mitochondria was prepared using the AKB domain and a mitochondria targeting sequence from D-AKAP1 as set forth in Example 3. The respective mutations were then incorporated into the AKB domain of D-AKAP2 to test for selectivity in the cell. The targeting constructs of the AKB domain were made by fusing the C-terminal 156 residues of mouse D-AKAP2 with the N-terminal mitochondrial-targeting domain of D-AKAP1 (residues 1-30 of D-AKAP1a). After adding a flag tag to the C-terminus, the constructs were sub-cloned into the pCI vector (Promega, Madison, Wis.). The mutations of the AKB domain corresponding to those set forth in Table 7 herein were made with the QuickChange mutagenesis method (Makarova et al. (2000) Biotechniques, 29:970-972). Full-length bovine RIα and mouse RIIα were fused with green fluorescent protein (GFP) by subcloning into pEGFPN1 (Clontech, Palo Alto, Calif.). Equal amounts of the targeting constructs and either GFP-RIα or GFP-RIIα constructs were co-transfected into 10T(1/2) cells using Lipofectamin (Invitrogen, Carlsbad, Calif.). The AKB domain was detected by immuno-staining with monoclonal antibodies against the Flag-tag (Kodak, Rochester, N.Y.) followed by a rhodamine-conjugated secondary antibody (Jackson Lab, Bar Harbor, Me.). The cells were imaged using a radiance confocal microscope (BioRad, Hercules, Calif.).

GFP-RIα = target: T3, GFP-RIα (Bos taurus, UniProt P00514); test: as above; assay type: cell-based, bovine; settings: mutations of Table 7 in AKB domain of C-terminal 156 residues of mouse D-AKAP2, mitochondria-targeted
T3 construct: Full-length bovine RIα and mouse RIIα were fused with green fluorescent protein (GFP) by subcloning into pEGFPN1; expressed in transfected cells; host or cells: 10T(1/2) cells
T3 sequence (P00514 whole entry, the tested form may be a part): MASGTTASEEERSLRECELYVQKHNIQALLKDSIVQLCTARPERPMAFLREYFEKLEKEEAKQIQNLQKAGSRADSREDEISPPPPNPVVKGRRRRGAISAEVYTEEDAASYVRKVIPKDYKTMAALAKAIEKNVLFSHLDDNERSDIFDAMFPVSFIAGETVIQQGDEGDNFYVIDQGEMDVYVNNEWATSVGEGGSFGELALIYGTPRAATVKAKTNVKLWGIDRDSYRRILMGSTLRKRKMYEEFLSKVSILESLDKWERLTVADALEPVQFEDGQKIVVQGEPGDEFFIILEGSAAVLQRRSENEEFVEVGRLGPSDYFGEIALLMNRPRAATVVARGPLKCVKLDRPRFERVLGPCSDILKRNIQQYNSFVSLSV
Experimental: as §4

full-length RIα = target: T4, full-length RIα (Bos taurus, UniProt P00514); test: Fluorescence anisotropy binding assay (Example 9); design: species or system bovine; settings: compared with the unsubstituted peptide
T4 construct: Full-length bovine RIα was expressed in E. coli 222; made in house; host or cells: E. coli 222
T4 sequence (P00514 whole entry): as the sequence (P00514 whole entry, the tested form may be a part) above
Experimental: as §1, §2, §3

| binding to RIIα, in words (full-length RIIα) | binding to RIα, in words (full-length RIα) | Structure (SMILES) | recruitment of GFP-RIIα to the mitochondria (GFP-RIIα) | recruitment of GFP-RIα to the mitochondria (GFP-RIα) | binding to RIIα, in words (full-length RIIα; listed as SEQ ID NO:103) | binding to RIα, in words (full-length RIα; listed as SEQ ID NO:103) |
| --- | --- | --- | --- | --- | --- | --- |
| did not affect binding to RIIα | dramatically affected binding to RIα | CC[C@H](C)[C@H](NC(=O)[C@H](CCCCN)NC(=O)[C@H](Cc1c[nH]c2ccccc12)NC(=O)[C@H](CC(C)C)NC(=O)[C@H](CC(C)C)NC(=O)[C@H](CCC(=O)O)NC(=O)[C@H](CCC(=O)O)NC(=O)[C@H](CCC(N)=O)NC(=O)[C@H](C)NC(=O)[C@H](CCC(=O)O)NC(=O)[C@H](CC(=O)O)NC(=O)[C@@H](NC(=O)[C@H](CC(N)=O)NC(=O)CNC(=O)[C@H](CCC(N)=O)NC(=O)[C@@H](N)C(C)C)[C@@H](C)O)C(=O)N[C@@H](C)C(=O)N[C@@H](CCCCN)C(=O)N[C@@H](CCSC)C(=O)N[C@H](C(=O)N[C@H](C(=O)N[C@@H](CO)C(=O)N[C@@H](CC(=O)O)C(=O)N[C@H](C(=O)N[C@@H](CCSC)C(=O)N[C@@H](CCC(N)=O)C(=O)N[C@@H](CCC(N)=O)C(=O)N[C@@H](CSC1CC(=O)N(c2ccc3c(c2)C(=O)OC32c3ccc(N(C)C)cc3Oc3cc(N(C)C)ccc32)C1=O)C(N)=O)C(C)C)C(C)C)[C@@H](C)CC (stereo partly shown) [AKB (RII)] (H-VQGNTDEAQEELLWKIAKMIVSDVMQQC(X1)-NH2; N-terminus assumed) | recruited RII to the mitochondria | incapable of recruiting GFP-RI | – | – |
| – | – | CC[C@H](C)[C@H](NC(=O)[C@H](CCCCN)NC(=O)[C@H](Cc1c[nH]c2ccccc12)NC(=O)[C@H](C)NC(=O)[C@H](CC(C)C)NC(=O)[C@H](CCC(=O)O)NC(=O)[C@H](CCC(=O)O)NC(=O)[C@H](CCC(N)=O)NC(=O)[C@H](C)NC(=O)[C@H](CCC(=O)O)NC(=O)[C@H](CC(=O)O)NC(=O)[C@@H](NC(=O)[C@H](CC(N)=O)NC(=O)CNC(=O)[C@H](CCC(N)=O)NC(=O)[C@@H](N)C(C)C)[C@@H](C)O)C(=O)N[C@@H](C)C(=O)N[C@@H](CCCCN)C(=O)N[C@@H](CCSC)C(=O)N[C@H](C(=O)N[C@H](C(=O)N[C@@H](CO)C(=O)N[C@@H](CC(=O)O)C(=O)N[C@H](C(=O)N[C@@H](CCSC)C(=O)N[C@@H](CCC(N)=O)C(=O)N[C@@H](CCC(N)=O)C(=O)N[C@@H](CSC1CC(=O)N(c2ccc3c(c2)C(=O)OC32c3ccc(N(C)C)cc3Oc3cc(N(C)C)ccc32)C1=O)C(N)=O)C(C)C)C(C)C)[C@@H](C)CC (stereo partly shown) [AKB (dual)] (H-VQGNTDEAQEELAWKIAKMIVSDVMQQC(X1)-NH2; N-terminus assumed) | able to recruit both GFP-RIα and GFP-RIIα to the mitochondria | able to recruit both GFP-RIα and GFP-RIIα to the mitochondria | – | – |
| could not be detected | bound very poorly | CC[C@H](C)[C@H](NC(=O)[C@H](CCCCN)NC(=O)[C@H](Cc1c[nH]c2ccccc12)NC(=O)[C@H](C)NC(=O)[C@H](CC(C)C)NC(=O)[C@H](CCC(=O)O)NC(=O)[C@H](CCC(=O)O)NC(=O)[C@H](CCC(N)=O)NC(=O)[C@H](C)NC(=O)[C@H](CCC(=O)O)NC(=O)[C@H](CC(=O)O)NC(=O)[C@@H](NC(=O)[C@H](CC(N)=O)NC(=O)CNC(=O)[C@H](CCC(N)=O)NC(=O)[C@@H](N)C(C)C)[C@@H](C)O)C(=O)N[C@@H](CCC(=O)O)C(=O)N[C@@H](CCCCN)C(=O)N[C@@H](CCSC)C(=O)N[C@H](C(=O)N[C@@H](Cc1c[nH]c2ccccc12)C(=O)N[C@@H](CO)C(=O)N[C@@H](CC(=O)O)C(=O)N[C@H](C(=O)N[C@@H](CCSC)C(=O)N[C@@H](CCC(N)=O)C(=O)N[C@@H](CCC(N)=O)C(=O)N[C@@H](CSC1CC(=O)N(c2ccc3c(c2)C(=O)OC32c3ccc(N(C)C)cc3Oc3cc(N(C)C)ccc32)C1=O)C(N)=O)C(C)C)[C@@H](C)CC (stereo partly shown) [AKB (null)] (H-VQGNTDEAQEELAWKIEKMIWSDVMQQC(X1)-NH2; N-terminus assumed) | could not co-localize either GFP-RIα or RIIα | could not co-localize either GFP-RIα or RIIα | – | – |

| Structure (SMILES) | binding to RIIα, in words (full-length RIIα) | binding to RIα, in words (full-length RIα) | recruitment of GFP-RIIα to the mitochondria (GFP-RIIα) | recruitment of GFP-RIα to the mitochondria (GFP-RIα) | binding to RIIα, in words (full-length RIIα; listed as SEQ ID NO:103) | binding to RIα, in words (full-length RIα; listed as SEQ ID NO:103) |
| --- | --- | --- | --- | --- | --- | --- |
| CC[C@H](C)[C@H](NC(=O)[C@H](CCCCN)NC(=O)[C@H](Cc1c[nH]c2ccccc12)NC(=O)[C@H](C)NC(=O)[C@H](CC(C)C)NC(=O)[C@H](CCC(=O)O)NC(=O)[C@H](CCC(=O)O)NC(=O)[C@@H](N)Cc1ccccc1)C(=O)N[C@@H](C)C(=O)N[C@@H](CCCCN)C(=O)N[C@@H](CCSC)C(=O)N[C@H](C(=O)N[C@@H](Cc1c[nH]c2ccccc12)C(=O)N[C@@H](CO)C(=O)N[C@@H](CC(=O)O)C(=O)N[C@H](C(=O)N[C@@H](Cc1ccccc1)C(=O)N[C@@H](CCC(N)=O)C(=O)N[C@@H](CCC(N)=O)C(=O)N[C@@H](CSC1CC(=O)N(c2ccc3c(c2)C(=O)OC32c3ccc(N(C)C)cc3Oc3cc(N(C)C)ccc32)C1=O)C(N)=O)C(C)C)[C@@H](C)CC (stereo partly shown) [PV-38] (H-FEELAWKIAKMIWSDVFQQC(X1)-NH2; N-terminus assumed) | substantially no binding; also recorded: further disrupting RIIα binding | dramatically enhanced binding to RIα | GFP-RII was not localized | only localized GFP-RI to the mitochondria | considerable reduction in affinity to RIIα | enhanced binding to RIα by a factor of ten |
